Measurements published in patent US20180282415A1, “Combination of a PD-1 Axis Binding Antagonist and an ALK Inhibitor for Treating ALK-Negative Cancer” (Merck Patent GmbH, priority 2015, published 2018).

Key:
[1] = test system: CD3/CD28-stimulated effector cells (T cells from healthy donors' PBMCs); test: T cell proliferation assay (3H thymidine incorporation), CD3/CD28-stimulated T cells; type: cell-based, human; details: for Thymidine incorporation(CPM): log[Agonist]
Source text: (§1) Briefly, human cells were isolated from healthy donors' PBMCs by using EasySep™ Human T Cell Enrichment Kit (Stemcell Technologies) according to manufacturer's instruction. […] Culture supernatants were collected on Day 2 or 3 for cytokine analysis. Plates were then harvested on DNA specific filter papers (Perkin Elmer) using Harvester96 (Tomtec Life Sciences). The radiolabeled filters were covered with beta scintillation liquid (Perkin Elmer) and read in Microbeta® counter plates (Perkin Elmer). ^3H Thymidine was pulsed on Day 2 for T cell proliferation assay.

activated T cells = test: T cell viability, Cell-Titer Glo Luminescent Cell Viability Assay; type: cell-based, human; details: for Luciferase RLU (T cell viability): log[Agonist]
Description: as §1, with “instruction. […] Cells were cultured in RPMI 1640 medium supplemented with 10% FCS and 100 I.U./mL penicillin/streptomycin in humidified incubator at 37° C. with 5% CO2.” for “instruction.”, “assay. The impact by sunitinib and axitinib on T cell proliferation and viability were repeated as previously published (FIGS. 1A and 1B).” for “assay.”
Cell viability was measured by Cell-Titer Glo Luminescent Cell Viability Assay® (Promega, Madison). […] Table 4 below provides the Luciferase RLU values reflecting T cell viability for each of the respective inhibitors.

CT26 colon carcinoma = test: In vivo tumor efficacy, CT26 model, crizotinib or alectinib with anti-PD-L1 (Example 3); set-up: species or system Balb/c mice
Source text: (§2) CT26 colon carcinoma cell line has published mutanome and transcriptome data, with no known ALK fusion events or oncogenic mutations. Castle et al, BMC Genomics, 15:190 (13 Mar. 2014); Castle et al, CAN 11:3722 (11 Jan. 2012).
(§3) Six- to eight-week old female Balb/c or C57BL/6 mice were purchased from The Jackson Laboratories.
CT26 cell lines, anti-PD-L1 antibody and Rat IgG isotypes (IgG2a and IgG2b) were purchased from BioXCell (clones 2A3 and LTF2, respectively) and prepared as described in Example 2 above. […]

MC38 colon carcinoma [2] = test: In vivo tumor efficacy, MC38 model, crizotinib with anti-PD-L1 (Example 3); set-up: species or system C57BL/6 mice; details: crizotinib 40 mg/kg, anti-mPDL1 10 mg/kg
Description: as §2, §3
MC38 colon carcinoma cell line was kindly provided by Dr. Antoni Ribas at UCLA, California. Cells were cultured in DMEM medium supplemented with 10% fetal bovine serum, and 100 I.U./mL penicillin/streptomycin at 37° C. in an atmosphere of 5% CO2 in air, and IMPACT-tested for pathogens at Research Animal Diagnostic Laboratory (RADIL) (Columbia, Mo.). Pathogen-free cells growing in an exponential growth phase were harvested and used for tumor inoculation.
For the MC38 study, C57BL/6 mice were inoculated subcutaneously in the right lower flank with 0.2×10^6 MC38 colon carcinoma cells. When tumor bearing mice achieved a mean tumor volume of 50 to 150 mm^3, mice were randomly assigned to 1 of 4 treatment groups, n=10.

MC38 colon carcinoma [3] = test: In vivo tumor efficacy, MC38 model, crizotinib with avelumab (Example 5); set-up: species or system C57BL/6 mice; details: for Tumor Volume (Mean ± SEM): avelumab 20 mg/kg i.p., crizotinib 40 mg/kg orally QD; for TGI: compared with the isotype control antibody treated group, avelumab 20 mg/kg, crizotinib 40 mg/kg
Description: Avelumab is a fully human IgG1 antibody that recognizes both human and mouse PD-L1. […] Six- to eight-week old female C57BL/6 mice were purchased from The Jackson Laboratories (Farmington, Conn.). Mice were maintained and all animal experiments were conducted according to the protocols approved by the Institutional Animal Care and Use Committee of Rinat, South San Francisco and Worldwide Research and Development (WRD), La Jolla, Pfizer Inc. MC38 colon carcinoma cell line was kindly provided by Dr. Antoni Ribas at UCLA, California. Cells were cultured in DMEM medium supplemented with 10% fetal bovine serum, and 100 I.U./mL penicillin/streptomycin at 37° C. in an atmosphere of 5% CO2 in air, and IMPACT-tested for pathogens at Research Animal Diagnostic Laboratory (RADIL) (Columbia, Mo.). Pathogen-free cells growing in an exponential growth phase were harvested and used for tumor inoculation. […] Human IgG1 was prepared in-house (Lot No. NB123249p192CA110124). […] Body weight was recorded weekly. […] Mice were monitored for tumor growth and body weight changes.

## CCN(CC)CCNC(=O)c1c(C)[nH]c(/C=C2\C(=O)Nc3ccc(F)cc32)c1C [Sunitinib, sunitinib]
[1]; μM: 0
  Thymidine incorporation(CPM): 493570.3 ± 59347.45 CPM
[1]; μM: 1
  Thymidine incorporation(CPM): 332 ± 105.9733 CPM
[1]; μM: 2
  Thymidine incorporation(CPM): 117.3333 ± 16.23 CPM
[1]; μM: 3
  Thymidine incorporation(CPM): 171 ± 25 CPM
[1]; μM: −1
  Thymidine incorporation(CPM): 468847.7 ± 39073.88 CPM
[1]; μM: −2
  Thymidine incorporation(CPM): 444679.3 ± 13911.18 CPM
[1]; μM: −3
  Thymidine incorporation(CPM): 469071 ± 48070.7 CPM
Activated T cells; μM: 0
  Luciferase RLU (T cell viability): 98.24 ± 2.169 RLU
Activated T cells; μM: 1
  Luciferase RLU (T cell viability): 13.95 ± 7.493 RLU
Activated T cells; μM: 2
  Luciferase RLU (T cell viability): 0.8502 ± 0.2596 RLU
Activated T cells; μM: 3
  Luciferase RLU (T cell viability): 1.827 RLU
Activated T cells; μM: −1
  Luciferase RLU (T cell viability): 91.57 ± 2.195 RLU
Activated T cells; μM: −2
  Luciferase RLU (T cell viability): 98.04 ± 2.634 RLU
Activated T cells; μM: −3
  Luciferase RLU (T cell viability): 96.57 ± 1.711 RLU

## CCc1cc2c(cc1N1CCC(N3CCOCC3)CC1)C(C)(C)c1[nH]c3cc(C#N)ccc3c1C2=O [Alectinib, alectinib]
CT26 colon carcinoma; Day 7, alectinib study, alectinib 60 mg/kg, anti-mPDL1 10 mg/kg
  Tumor Volume (Mean ± SEM): 119.1 ± 12.5 mm^3
CT26 colon carcinoma; Day 14, alectinib study, alectinib 60 mg/kg, anti-mPDL1 10 mg/kg
  Tumor Volume (Mean ± SEM): 293.4 ± 54.2 mm^3
CT26 colon carcinoma; Day 19, alectinib study, alectinib 60 mg/kg, anti-mPDL1 10 mg/kg
  Tumor Volume (Mean ± SEM): 546.8 ± 98.0 mm^3
CT26 colon carcinoma; Day 24, alectinib study, alectinib 60 mg/kg, anti-mPDL1 10 mg/kg
  Tumor Volume (Mean ± SEM): 1114.2 ± 217.0 mm^3
CT26 colon carcinoma; Day 27, alectinib study, alectinib 60 mg/kg, anti-mPDL1 10 mg/kg
  Tumor Volume (Mean ± SEM): 1892.5 ± 283.1 mm^3

## C[C@@H](Oc1cc(-c2cnn(C3CCNCC3)c2)cnc1N)c1c(Cl)ccc(F)c1Cl [crizotinib, 3-[(1R)-1-(2,6-dichloro-3-fluorophenyl)ethoxy]-5-(1-piperidin-4-ylpyrazol-4-yl)pyridin-2-amine]
[1]; activated T cells, FIG. 1A
  Effect on T cell proliferation: did not have adverse effects on T cell proliferation
[1]; μM: 0
  Thymidine incorporation(CPM): 432360.3 ± 29488.63 CPM
[1]; μM: 1
  Thymidine incorporation(CPM): 436099.3 ± 34171.33 CPM
[1]; μM: 2
  Thymidine incorporation(CPM): 270672.7 ± 18298.53 CPM
[1]; μM: −1
  Thymidine incorporation(CPM): 438641 ± 47103.88 CPM
[1]; μM: −2
  Thymidine incorporation(CPM): 442995.3 ± 42508.08 CPM
[1]; μM: −3
  Thymidine incorporation(CPM): 421221.3 ± 24333.6 CPM
Activated T cells; FIG. 1B
  Effect on T cell viability: did not result in dose-dependent decreases in T cell viability
Activated T cells; μM: 0
  Luciferase RLU (T cell viability): 94.22 ± 1.814 RLU
Activated T cells; μM: 1
  Luciferase RLU (T cell viability): 91.72 ± 2.354 RLU
Activated T cells; μM: 2
  Luciferase RLU (T cell viability): 64.24 ± 3.748 RLU
Activated T cells; μM: 3
  Luciferase RLU (T cell viability): 1.474 ± 0.1693 RLU
Activated T cells; μM: −1
  Luciferase RLU (T cell viability): 95.6927 ± 1.827 RLU
Activated T cells; μM: −2
  Luciferase RLU (T cell viability): 93.68 ± 1.564 RLU
Activated T cells; μM: −3
  Luciferase RLU (T cell viability): 89.08 ± 2.843 RLU
CT26 colon carcinoma; Day 7, crizotinib 5 mg/kg (alone or with anti-mPDL1)
  Tumor Volume (Mean ± SEM): 90.3 ± 8.1 mm^3
CT26 colon carcinoma; Day 7, crizotinib 20 mg/kg (alone or with anti-mPDL1)
  Tumor Volume (Mean ± SEM): 90.3 ± 8.0 mm^3
CT26 colon carcinoma; Day 7, crizotinib 40 mg/kg (alone or with anti-mPDL1)
  Tumor Volume (Mean ± SEM): 94.4 ± 7.9 mm^3
CT26 colon carcinoma; Day 10, crizotinib 5 mg/kg (alone or with anti-mPDL1)
  Tumor Volume (Mean ± SEM): 140.9 ± 18.0 mm^3
CT26 colon carcinoma; Day 10, crizotinib 20 mg/kg (alone or with anti-mPDL1)
  Tumor Volume (Mean ± SEM): 156.1 ± 21.9 mm^3
CT26 colon carcinoma; Day 10, crizotinib 40 mg/kg (alone or with anti-mPDL1)
  Tumor Volume (Mean ± SEM): 127.0 ± 9.8 mm^3
CT26 colon carcinoma; Day 14, crizotinib 5 mg/kg (alone or with anti-mPDL1)
  Tumor Volume (Mean ± SEM): 246.6 ± 54.7 mm^3
CT26 colon carcinoma; Day 14, crizotinib 20 mg/kg (alone or with anti-mPDL1)
  Tumor Volume (Mean ± SEM): 234.2 ± 49.0 mm^3
CT26 colon carcinoma; Day 14, crizotinib 40 mg/kg (alone or with anti-mPDL1)
  Tumor Volume (Mean ± SEM): 218.5 ± 31.5 mm^3
CT26 colon carcinoma; Day 18, crizotinib 5 mg/kg (alone or with anti-mPDL1)
  Tumor Volume (Mean ± SEM): 407.1 ± 122.2 mm^3
CT26 colon carcinoma; Day 18, crizotinib 20 mg/kg (alone or with anti-mPDL1)
  Tumor Volume (Mean ± SEM): 299.3 ± 67.1 mm^3
CT26 colon carcinoma; Day 18, crizotinib 40 mg/kg (alone or with anti-mPDL1)
  Tumor Volume (Mean ± SEM): 319.6 ± 47.7 mm^3
CT26 colon carcinoma; Day 22, crizotinib 5 mg/kg (alone or with anti-mPDL1)
  Tumor Volume (Mean ± SEM): 749.8 ± 220.0 mm^3
CT26 colon carcinoma; Day 22, crizotinib 20 mg/kg (alone or with anti-mPDL1)
  Tumor Volume (Mean ± SEM): 631.3 ± 158.5 mm^3
CT26 colon carcinoma; Day 22, crizotinib 40 mg/kg (alone or with anti-mPDL1)
  Tumor Volume (Mean ± SEM): 685.3 ± 101.1 mm^3
CT26 colon carcinoma; Day 25, crizotinib 5 mg/kg (alone or with anti-mPDL1)
  Tumor Volume (Mean ± SEM): 1161.1 ± 415.4 mm^3
CT26 colon carcinoma; Day 25, crizotinib 20 mg/kg (alone or with anti-mPDL1)
  Tumor Volume (Mean ± SEM): 934.9 ± 223.8 mm^3
CT26 colon carcinoma; Day 25, crizotinib 40 mg/kg (alone or with anti-mPDL1)
  Tumor Volume (Mean ± SEM): 1074.5 ± 136.2 mm^3
CT26 colon carcinoma; compared to isotype control or single agents
  Anti-tumor effect in CT26 model: no anti-tumor effects
MC38 colon carcinoma [2]; Day 7
  Tumor Volume (Mean ± SEM): 78.1 ± 6.0 mm^3
MC38 colon carcinoma [2]; Day 14
  Tumor Volume (Mean ± SEM): 169.7 ± 16.3 mm^3
MC38 colon carcinoma [2]; Day 19
  Tumor Volume (Mean ± SEM): 291.7 ± 26.2 mm^3
MC38 colon carcinoma [2]; Day 24
  Tumor Volume (Mean ± SEM): 580.5 ± 67.0 mm^3
MC38 colon carcinoma [2]; Day 27
  Tumor Volume (Mean ± SEM): 836.5 ± 137.8 mm^3
MC38 colon carcinoma [3]; Day 7
  Tumor Volume (Mean ± SEM): 78.1 ± 6.0 mm^3
MC38 colon carcinoma [3]; Day 14
  Tumor Volume (Mean ± SEM): 169.7 ± 16.3 mm^3
MC38 colon carcinoma [3]; Day 19
  Tumor Volume (Mean ± SEM): 291.7 ± 26.2 mm^3
MC38 colon carcinoma [3]; Day 24
  Tumor Volume (Mean ± SEM): 580.5 ± 67.0 mm^3
MC38 colon carcinoma [3]; Day 27
  Tumor Volume (Mean ± SEM): 836.5 ± 137.8 mm^3
MC38 colon carcinoma [3]
  TGI: 48.5%

B1: Avelumab: fully human IgG1 antibody that recognizes both human and mouse PD-L1 (antibody, V domains shown)
VH: EVQLLESGGGLVQPGGSLRLSCAASGFTFSSYIMWVRQAPGKGLEWVSSIYPSGGITFYADKGRFTISRDNSKNTLYLQMNSLRAEDTAVYYCARIKLGTVTTVDYWGQGTLVTVSS
VL: QSALTQPASVSGSPGQSITISCTGTSSDVGGYNYVSWYQQHPGKAPKLMIYDVSNRPSGVSNRFSGSKSGNTASLTISGLQAEDEADYYCSSYTSSSTRVFGTGTKVTVL
MC38 colon carcinoma [3]; Day 7
  Tumor Volume (Mean ± SEM): 78.3 ± 5.4 mm^3
MC38 colon carcinoma [3]; Day 14
  Tumor Volume (Mean ± SEM): 145.5 ± 11.0 mm^3
MC38 colon carcinoma [3]; Day 19
  Tumor Volume (Mean ± SEM): 307.1 ± 25.5 mm^3
MC38 colon carcinoma [3]; Day 24
  Tumor Volume (Mean ± SEM): 535.0 ± 62.0 mm^3
MC38 colon carcinoma [3]; Day 27
  Tumor Volume (Mean ± SEM): 817.7 ± 87.2 mm^3
MC38 colon carcinoma [3]
  TGI: 49.7%
